Tests used:
BBOX = test system: BBOX; parameters: method as in PMID 25030770, PMID 24317009; conditions: BBOX (0.05 μM); 1H NMR turnover assay; cited from earlier work
JMJD5 = test system: JMJD5; parameters: method as in PMID 37292060; conditions: SPE-MS, cited from earlier work
AspH315–758 = test system: AspH315–758; parameters: method as in PMID 32107312; conditions: AspH315–758 (0.1 μM), hFX-CP101–119 as substrate; SPE-MS; 2OG or Fe(II); cited from earlier work
NO66_183–641 = test system: NO66_183–641; parameters: method as in PMID 34843649; conditions: NO66_183–641 (0.3 μM), RPL8_205–224 as substrate; SPE-MS; 2OG or Fe(II); cited from earlier work
PHD2 = test system: PHD2; parameters: method as in PMID 18952043; conditions: PHD2 (1.0 nM), HIF-1α-derived biotin-DLEMLAPYIPMDDDFQL as substrate; FRET assay; 2OG or Fe(II); cited from earlier work
full-length His6-JMJD6 = biological target: T1, full-length His6-JMJD6 (Homo sapiens, UniProt Q6NYC1); experiment: SPE-MS kinetics of JMJD6-catalysed lysyl hydroxylation (2OG, Fe(II), LAA, BRD-derived peptides); assay type: biochemical; conditions: 2OG or Fe(II) varied, BRD4_511–550 (2 μM) as substrate, 0.05 μM full-length His6-JMJD6, ambient temperature
T1 construct: An enzyme mixture (10 μL) containing full-length His6-JMJD6 (5 μM; final concentration: 0.05 μM); made in house; host or cells: Escherichia coli BL21 (DE3), pET-28a(+) plasmid
Experimental: Recombinant human JMJD6 (full length with a N-terminal His6-tag) was produced in Escherichia coli BL21 (DE3) cells using a pET-28a(+) plasmid and purified by standard Ni(II)-affinity size-exclusion chromatography, as previously reported.[40] […] Purified JMJD6 was stored at −78 °C; fresh aliquots were used for all JMJD6 assays.
Peptides were used as 10 mM stock solutions in DMSO (Sigma-Aldrich; BioUltra grade).
Assay samples were aspirated under vacuum for 0.4 s, then loaded onto a C4 solid phase extraction (SPE) cartridge. After loading, the C4 SPE cartridge was washed with 0.1%v/v aqueous formic acid to remove non-volatile buffer salts (5 s, 1.5 mL min^−1). The peptide was eluted from the SPE cartridge with 0.1%v/v aqueous formic acid in 75/25v/v acetonitrile/water into the mass spectrometer (5 s, 1.6 mL min^−1) and the SPE cartridge re-equilibrated with 0.1%v/v aqueous formic acid (1 s, 1.25 mL min^−1).
Peaks corresponding to the m/z +5 charge states of the BRD-derived substrate peptide and the hydroxylated product peptides were extracted from the ion chromatogram and integrated using RapidFire Integrator 4.3.0 (Agilent). Peak area data were exported into Microsoft Excel and used to calculate the relative abundance of the mono-hydroxylated product peptide using the following equation: […]
The concentration of the mono-hydroxylated product peptide was calculated by multiplying the %-fraction of the mono-hydroxylated product peptide by the initial concentration of the substrate peptide employed in the assay. Initial reaction velocities were then calculated and fitted to a Michaelis–Menten plot using nonlinear regression (GraphPad Prism 5).

[1] = LAA 100 μM, 50 mM Tris pH 7.5, ~20 min, SPE-MS, mean ± SD n = 3

C[N+](C)(C)CCCC(=O)[O-] [γ-butyrobetaine]
K m (substrate) (BBOX): 4.2 µM | k cat (substrate) (BBOX): 0.83 s⁻¹

RSP6_128–148: JMJD5 substrate
k cat/Km (substrate) (JMJD5): 11.5 ± 6.3 mM⁻¹ s⁻¹

ammonium iron(II) sulfate hexahydrate [Fe(II)]
K^app m (AspH315–758): 1.42 ± 0.16 µM | k cat/Km (AspH315–758): 130 ± 30 mM⁻¹ s⁻¹ | k^app cat (AspH315–758): 0.19 ± 0.03 s⁻¹ | K^app m (NO66_183–641): 0.014 ± 0.001 µM | K^app m (PHD2): 0.89 ± 0.07 µM | k cat/Km (JMJD5; RSP6_128–148 as substrate, 2OG or Fe(II)): 38.5 ± 6.2 mM⁻¹ s⁻¹ | apparent Michaelis constant K^app m (full-length His6-JMJD6; [1]): 0.19 ± 0.02 µM | apparent maximum velocity v^app max (full-length His6-JMJD6; [1]): 3.6 ± 0.1 nM/s | apparent turnover number k^app cat (full-length His6-JMJD6; pH 7.5, calculated from v^app max assuming active JMJD6 = total enzyme, n = 3): 0.072 ± 0.002 s⁻¹ | specificity constant kcat/Km (full-length His6-JMJD6; pH 7.5, n = 3): 380 ± 50 mM⁻¹ s⁻¹
